In data set [1] the target is T1, SpnFADS (Streptococcus pneumoniae, UniProt A0A0H2UPY5).
T1 construct: gene SP_1110; full-length bifunctional enzyme from pET-15b in E. coli BL21 Star (DE3), His6-tag removed; riboflavin kinase activity of the C-terminal module; functional form monomer
T1 sequence (A0A0H2UPY5 1-305): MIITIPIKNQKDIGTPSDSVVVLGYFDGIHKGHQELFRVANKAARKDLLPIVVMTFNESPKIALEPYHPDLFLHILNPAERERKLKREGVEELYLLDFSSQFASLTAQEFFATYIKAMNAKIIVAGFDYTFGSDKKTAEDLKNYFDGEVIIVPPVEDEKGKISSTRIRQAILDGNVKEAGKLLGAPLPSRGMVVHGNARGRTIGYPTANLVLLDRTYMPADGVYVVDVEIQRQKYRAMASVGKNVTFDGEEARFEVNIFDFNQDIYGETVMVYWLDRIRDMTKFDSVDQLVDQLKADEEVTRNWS
In words: biochemical. On the set-up: Isothermal titration calorimetry, ligand titrated into free or ligand-pre-bound SpnFADS, 20 °C, PIPES pH 7.0. The method, then:
We performed isothermal titration calorimetry (ITC) assays to elucidate both the ligand binding order and the thermodynamic inhibition produced by the binding of the FLV and ANP ligands. Titrations were performed on an AutoITC200 (MicroCal, Malvern, UK) thermostated at 20 °C, as previously described. Approximately 25 µM SpnFADS contained in a 200 µL-cell was titrated with solutions of 180 µM RF, 250 µM FMN, or 350 µM ATP or ADP. Additionally, titrations with ANP ligands into mixtures that contain the protein pre-bound to FLV ligands were performed, as well as titrations with FLV ligands into pre-bound SpnFADS:ANP complexes. The titrations were conducted through 19 stepwise injections of 2 µL of the titrating ligand to the calorimetric cell, as previously described[21]^,[26]. Both the ligands and the protein were dissolved in 20 mM PIPES, pH 7.0, either in presence of 0.8 mM MgCl2 or in absence of this cation, and degassed before the titration. The enthalpy change (ΔH), the association constant (Ka), and the binding stoichiometry (N) were obtained through non-linear least squares regression of the data using a homemade fitting routine corresponding to a model for one or two independent binding sites, implemented in Origin 7.0 (OriginLab, Northampton, MA, USA), as previously described[21]^,[26]. The Gibbs free energy (ΔG), the entropic contribution (−TΔS), and the dissociation constant (Kd) were obtained using well-known thermodynamic equations. Cooperativity constants (α) between ANP and FLV ligands were obtained as previously described[23]^,[27]^,[28]. Particular titrations with ANP ligands into mixtures of the protein and 100 µM FLV were fit to a homemade fitting routine corresponding to a model that considers the influence of the FLV ligand in the protein binding affinity for the ANP ligand[27]^,[28]. Experiments were performed in triplicate. The errors considered in the measured parameters (±15% in Kd and Ka values, ±0.3 kcal mol^−1 in ΔG, ΔH, and −TΔS and ±20% in α) were assumed to be larger than the standard deviation between replicates and the numerical error after fitting analysis.

Data set [2] has as its target T1, SpnFADS. In words: stopped-flow flavin fluorescence, Kd from koff and kon. In kind it is binding. From the text:
stopped-flow flavin fluorescence, Kd from koff and kon on SpnFADS

Data set [3] has as its target T1, SpnFADS. In words: RFK activity, HPLC of flavins, global Lineweaver-Burk fit. In kind it is biochemical. From the text: (§1) RFK activity, HPLC of flavins, global Lineweaver-Burk fit on SpnFADS
Substrate in data set [4]: Nc1ncnc2c1ncn2[C@@H]1O[C@H](COP(=O)(O)OP(=O)(O)OP(=O)(O)O)[C@@H](O)[C@H]1O
The data set is described as above. The class given is biochemical, Streptococcus pneumoniae. The following applies: co-substrate RF, 20 mM PIPES pH 7.0, 0.8 mM MgCl2, 25 °C.
Excerpt: as §1

Substrate in data set [5]: Cc1cc2nc3c(=O)[nH]c(=O)nc-3n(C[C@H](O)[C@H](O)[C@H](O)CO)c2cc1C
The description is as above. Conditions: co-substrate ATP, 20 mM PIPES pH 7.0, 0.8 mM MgCl2, 25 °C. The class given is biochemical, Streptococcus pneumoniae.
Excerpt: as §1

Setting [6] is: enzyme pre-bound to ADP, 0.8 mM MgCl2.
The mark [7] stands for this setting: enzyme pre-bound to ADP, no MgCl2, read-out: Kd (μM), 0.0 mM MgCl2.

Like-named read-outs stand apart in the source and are kept apart here.

Turning to `Cc1cc2nc3c(=O)[nH]c(=O)nc-3n(C[C@H](O)[C@H](O)[C@H](O)COP(=O)(O)O)c2cc1C` [FMN, flavin mononucleotide], the Kd is 2.3 µM at SpnFADS [1] (setting [6]); 7.9 µM at SpnFADS [1] (setting [7]); 1.6 µM on SpnFADS [1] (enzyme pre-bound to ATP, 0.8 mM MgCl2); 0.76 ± 0.24 µM on SpnFADS [2]. The Ki at SpnFADS [3] (read-out: Ki^FMN) was 1.3 ± 0.4 µM.

As to `Cc1cc2nc3c(=O)[nH]c(=O)nc-3n(C[C@H](O)[C@H](O)[C@H](O)CO)c2cc1C` [RF, riboflavin], the Kd turned out to be 1.6 µM on SpnFADS [1] (setting [6]); 0.3 µM at SpnFADS [1] (setting [7]); 2.5 µM at SpnFADS [1] (enzyme pre-bound to ATP, no MgCl2, read-out: Kd (μM), 0.0 mM MgCl2); 0.57 ± 0.14 µM at SpnFADS [2].

Take `Nc1ncnc2c1ncn2[C@@H]1O[C@H](COP(=O)(O)OP(=O)(O)O)[C@@H](O)[C@H]1O` [ADP, adenosine 5′-diphosphate]: at SpnFADS [3] (read-out: Ki^ADP), the inhibition constant Ki worked out at 130 ± 16 µM.

B1: SpnFADS (Streptococcus pneumoniae TIGR4) (protein)
chain: MIITIPIKNQKDIGTPSDSVVVLGYFDGIHKGHQELFRVANKAARKDLLPIVVMTFNESPKIALEPYHPDLFLHILNPAERERKLKREGVEELYLLDFSSQFASLTAQEFFATYIKAMNAKIIVAGFDYTFGSDKKTAEDLKNYFDGEVIIVPPVEDEKGKISSTRIRQAILDGNVKEAGKLLGAPLPSRGMVVHGNARGRTIGYPTANLVLLDRTYMPADGVYVVDVEIQRQKYRAMASVGKNVTFDGEEARFEVNIFDFNQDIYGETVMVYWLDRIRDMTKFDSVDQLVDQLKADEEVTRNWS
notes: full-length bifunctional enzyme from pET-15b in E. coli BL21 Star (DE3), His6-tag removed; riboflavin kinase activity of the C-terminal module; functional form monomer
With B1, in data set [4], the Km turned out to be 75 ± 7 µM and the catalytic constant (kcat) came to 0.917 ± 0.033 s⁻¹. For the same molecule, in data set [5], the Km is 1.2 ± 0.3 µM and the kcat turned out to be 0.917 ± 0.033 s⁻¹.

What is called Kd is the constant that tells how readily two partners part at equilibrium. Broadly, the Ki is the equilibrium dissociation constant of an inhibitor or competing ligand from its target. The term Km denotes the concentration of substrate that gives half-maximal velocity. In general, kcat refers to the maximal rate divided by the concentration of active sites.

The record behind these values is paper PMC6010069, “The RFK catalytic cycle of the pathogen Streptococcus pneumoniae shows species-specific features in prokaryotic FMN synthesis” (Journal of Enzyme Inhibition and Medicinal Chemistry, 2018).
